According to patent EP2527322A1, “Carbamyl alkylphenyl disulfide derivatives and their therapeutic uses” (NOSCIRA, S.A., priority 2011, dated 2012):

These compounds were tested against T1, human recombinant GSK3β (Homo sapiens, UniProt P49841) (assay: GSK-3β enzymatic assay (Z'-LYTE FRET)). Settings: 2 nM enzyme, 12.5 µM ATP, 2 µM substrate peptide, 60 min incubation at room temperature; read-out: GSK3β inhibition average EC50.
T1 construct: 6His (N); purchased Millipore (Billerica, MA, USA)
Type: biochemical
Method: The enzymatic activity of GSK3β was determined with a commercial system based on the Z'-LYTE® technology, available from Invitrogen Life Technologies (Carlsbad, CA, USA), using human recombinant GSK3β (N-terminal 6His-tagged recombinant enzyme with an H350L mutation) from Millipore (Billerica, MA, USA) as the enzyme source. This technology utilizes the fluorescence resonance energy transfer ("FRET") process between fluorescein and coumarin. The assay principle is based on the differential sensitivity of phosphorylated and non-phosphorylated peptide to proteolytic cleavage, which precludes the energy transfer process between the two fluorophores attached to both sides of the cleavage site. […] The assay is performed in 384-well black plates, in a final volume of 10 µl, with 2 nM enzyme concentration in 50 mM Hepes pH 7.5, 50 mM MgCl2, 1 mM EGTA and 0.05% Brij-35, using 12.5 µM ATP and 2 µM substrate peptide. The latter is a synthetic peptide, provided by Invitrogen under the commercial name "Ser/Thr 9 peptide", and it is based upon the sequence of a GSK3β substrate protein (glycogen synthase I) containing Ser-641. The peptide is labeled at both ends with fluorescein and coumarin. The assay is carried out in the presence of different concentrations of the tested compound, at a final 1% (v/v) DMSO concentration. After a 60 min incubation at room temperature, 5 µl of a commercial protease solution (sold by the same vendor in the assay kit) is added and a subsequent 1h incubation at room temperature is performed, before adding 5 µl of a suitable "stop solution", also provided by the vendor in the kit. After that, fluorescence intensity is recorded, monitoring emission at both 445 and 520 nm, upon excitation at 400 nm. An emission ratio is finally calculated, using the quotient among the emission at 445 nm divided by that at 520 nm.
The emission ratio of each tested sample is normalized to that of the control wells, so that for every compound concentration the percentage of inhibition is calculated by using the following equation: %Inhibition = 100⋅(E-S)/(E-B) [formula] wherein "S" is the emission ratio of the sample being considered, "E" is the average emission ratio of wells, including enzyme in the absence of inhibitors, and "B" is the average emission ratio of wells without enzyme. The inhibition values obtained at every compound concentration are finally used to calculate the EC50 of the tested compound, this parameter being the concentration of the compound which causes 50% of inhibition. For that purpose, the data were fitted to a classical 4-parameters isotherm equation using the nonlinear regression function of GraphPad™ Prism 5.0 (GraphPad Software Inc.). Such equation is described below: % Inhibition = L + (H-L)/(1 + (((EC50)/(C)))^n) [formula] wherein "L" is the lower asymptote of the theoretical sigmoidal curve, "H" is the higher asymptote, "C" is the concentration of compound and "n" is the Hill coefficient.

T1 sequence (P49841 whole entry): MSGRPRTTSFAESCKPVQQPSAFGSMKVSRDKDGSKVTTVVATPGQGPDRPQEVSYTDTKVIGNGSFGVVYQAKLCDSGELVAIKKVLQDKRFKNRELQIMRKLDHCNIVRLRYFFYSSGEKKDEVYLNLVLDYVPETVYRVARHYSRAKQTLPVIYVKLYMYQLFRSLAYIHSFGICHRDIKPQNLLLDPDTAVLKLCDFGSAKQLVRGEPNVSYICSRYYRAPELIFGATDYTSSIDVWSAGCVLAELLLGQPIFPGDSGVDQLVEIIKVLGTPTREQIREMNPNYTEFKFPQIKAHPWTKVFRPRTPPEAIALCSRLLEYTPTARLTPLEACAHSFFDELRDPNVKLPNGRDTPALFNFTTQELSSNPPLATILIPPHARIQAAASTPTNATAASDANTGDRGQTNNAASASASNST

Row | EC50 | SMILES
1 | 290 nM | COC(=O)CN(C)C(=O)SSCc1ccccc1 [Compound 1, [Methyl-(4-phenyl-2,3-dithia-butyryl)-amino]-acetic acid methyl ester]
2 | 460 nM | CCOC(=O)CNC(=O)SSCc1ccccc1 [Compound 2, (4-Phenyl-2,3-dithia-butyrylamino)-acetic acid ethyl ester]
3 | 3900 nM | CCOC(=O)[C@H](Cc1ccccc1)NC(=O)SSCc1ccccc1 [Compound 3, (2S) 3-Phenyl-2-(4-phenyl-2,3-dithia-butyrylamino)-propionic acid ethyl ester]
4 | 1500 nM | CCOC(=O)[C@H](Cc1ccc(O)cc1)NC(=O)SSCc1ccccc1 [Compound 4, (2S) 3-(4-Hydroxy-phenyl)-2-(4-phenyl-2,3-dithia-butyrylamino)-propionic acid ethyl ester]
5 | 14000 nM | CCOC(=O)[C@H](CC(C)C)NC(=O)SSCc1ccccc1 [Compound 5, (2S) 4-Methyl-2-(4-phenyl-2,3-dithia-butyrylamino)-pentanoic acid ethyl ester]
6 | 910 nM | CCOC(=O)CCNC(=O)SSCc1ccccc1 [Compound 7, 3-(4-Phenyl-2,3-dithia-butyrylamino)-propionic acid ethyl ester]
7 | 6800 nM | CCOC(=O)CC[C@H](NC(=O)SSCc1ccccc1)C(=O)OCC [Compound 8, (2S) 2-(4-Phenyl-2,3-dithia-butyrylamino)-pentanedioic acid diethyl ester]
8 | 5400 nM | CCOC(=O)[C@H](C)NC(=O)SSCc1ccccc1 [Compound 9, (2S) 2-(4-Phenyl-2,3-dithia-butyrylamino)-propionic acid ethyl ester]
9 | 8700 nM | COC(=O)CC(NC(=O)SSCc1ccccc1)C(=O)OC (centres unmarked) [Compound 10]
10 | 3300 nM | COC(=O)[C@@H](Cc1c[nH]c2ccccc12)NC(=O)SSCc1ccccc1 [Compound 11]
11 | 260 nM | CCOC(=O)CN(Cc1ccccc1)C(=O)SSCc1ccccc1 [Compound 12]
12 | 220 nM | CCOC(=O)CN(CC(=O)OCC)C(=O)SSCc1ccccc1 [Compound 13]
13 | 130 nM | COC(=O)[C@@H]1CCCN1C(=O)SSCc1ccccc1 [Compound 14]
14 | 1300 nM | COC(=O)C(Cc1ccccc1)NC(=O)SSCc1ccccc1 (centres unmarked) [Compound 16]
15 | 470 nM | O=C(SSCc1ccccc1)N1C(=O)c2ccccc2C1=O [Compound 17]
16 | 10000 nM | CN(C(=O)SSCc1ccccc1)C(=O)c1ccccc1 [Compound 18]

What follows are compounds tested on phosphorylation at the Ser-396 residue of Tau protein in human neuroblastoma SH-SY5Y cells (assay: Cellular assay: Tau Ser-396 phosphorylation by ELISA in SH-SY5Y cells). Settings: 18 h incubation at 37°C, 1% (v/v) DMSO, read-out: pSer396-Tau average EC50.
Type: cell-based
Method: The effect of the compound in cells is determined by monitoring the level of phosphorylation at the Ser-396 residue of Tau protein in human neuroblastoma SH-SY5Y cells. Cells are grown in 96-well plates: 30,000 cells per well in a volume of 100 µl of 1:1 MEM:Ham's F12 medium including 10% (v/v) fetal bovine serum, 100 U/ml penicillin, 100 µg/ml streptomycin and 1% (v/v) 100-fold concentrated commercial stock of non-essential aminoacids (Gibco, Carlsbad, CA, USA), and incubated at 37°C during 24 h. Then, the corresponding amount of test compound is added to the wells to reach the desired concentration in 1% (v/v) DMSO. […] 60 µl of this mixture is then placed in an empty 96-well plate and the levels of Ser-396 phosphorylation are determined using a commercial ELISA kit (Biosource, Carlsbad, CA, USA), following manufacturer's instructions. The levels of phosphorylation are expressed as percentage values, after normalizing them to those in untreated cells and those values are used to calculate EC50s, as described above for GSK-3.

Row | EC50 | SMILES
17 | 4200 nM | COC(=O)CN(C)C(=O)SSCc1ccccc1 [Compound 1, [Methyl-(4-phenyl-2,3-dithia-butyryl)-amino]-acetic acid methyl ester]
